Results published in paper PMC4890880 (ACS infectious diseases, 2016).
Like-named read-outs stand apart in the source and are kept apart here.

Key:
HepG2-A16-CD81EGFP cells = assay: cells; conditions: Homo sapiens; for IC50: HepG2, read-out: Tox IC50; for inhibition at 50 µM: HepG2, read-out: Tox max inhibition (%) @ 50 uM
[1] = system: Plasmodium berghei (Pb-Luc) exoerythrocytic-stage parasites; assay: microbe, parasite or virus in culture
[2] = HepG2, read-out: HepG2 Tox% @ 50 uM rep1
[3] = HepG2, read-out: HepG2 Tox% @ 50 uM rep2
[4] = read-out: Inhibition% @ 50 uM rep1
[5] = read-out: Inhibition% @ 50 uM rep2
[6] = read-out: PbLuc IC50, dose response, 1/3 dilutions, max conc. 10 or 50 uM, unit inferred
[7] = read-out: PbLuc max inhibition (%) @ 50 uM

Compound	cytotoxicity at 50 µM (HepG2-A16-CD81EGFP cells; [2]) [%]	cytotoxicity at 50 µM (HepG2-A16-CD81EGFP cells; [3]) [%]	IC50 (HepG2-A16-CD81EGFP cells) [µM]	inhibition at 50 µM (HepG2-A16-CD81EGFP cells) [%]	inhibition at 50 µM [1, 4] [%]	inhibition at 50 µM [1, 5] [%]	IC50 [1, 6] [µM]	inhibition at 50 µM [1, 7] [%]	IC50 ([1]; read-out: PbLuc IC50, dose response, unit inferred) [µM]	IC50 ([1]; read-out: PbLuc IC50) [µM]
CC(C)(C)CC(C)(C)NCC(O)COc1ccc(Cl)cc1Cl (stereo not drawn) [MMV396794]	99	100	15.1	93	101	104	15.1	92	–	–
Cc1ccc2c(C)nc(Nc3nc(C)cc(-c4ccccc4)n3)nc2c1 [MMV007041]	37	–	–	–	103	103	–	–	–	–
c1ccc(C2=Nc3ccccc3N=C(c3ccccc3)c3ccccc32)cc1 [MMV007113]	22	–	> 50	15	94	95	–	40	> 50	–
O=C(NNc1cc(N2CCCC2)nc(N2CCCC2)n1)c1ccccc1 [MMV396770]	29	–	–	–	97	98	–	–	–	–
CCOC(=O)c1c(C)n(-c2ccccc2)c2ccc(OC(=O)c3cc(OC)c(OC)c(OC)c3)cc12 [MMV396664]	61	–	–	–	100	101	–	–	–	–
COc1cc(OC)c(N(C)C(=O)c2cc3c(s2)-c2ccccc2S(=O)(=O)C3)cc1Cl [MMV006427]	53	52	> 50	39	99	102	11	97	–	–
COc1cc(C(=O)ON=C(N)Cc2cccc3ccccc23)cc(OC)c1OC [MMV666687]	100	–	17.1	100	102	103	12.6	100	–	–
CC(C)(C)CC(C)(C)NCC(O)COc1ccc2c(c1)CCC2 (stereo not drawn) [MMV665817]	96	98	–	–	103	104	–	–	–	–
Cc1cc(N(C)C)nc(Nc2ccc(NC(=O)Nc3ccccc3)cc2)n1 [MMV020243]	96	–	15.7	100	96	99	1.45	100	–	–
Cc1ccc(Nc2nc(N)c3ccccc3n2)cc1Cl [MMV011522]	97	–	–	–	100	99	–	–	–	–
Cc1ccc(-c2cc(C(=O)Nc3ccc(S(=O)(=O)N4CCCCC4)cc3)[nH]n2)c(O)c1 [MMV665906]	-10	-5	–	–	-12	30	–	–	–	–
CC(Oc1ccc(NC(=O)c2cccs2)cc1)C(=O)c1ccc(Cl)cc1 (stereo not drawn) [MMV665886]	82	–	–	–	102	102	–	–	–	–
CC1=C(CC(=O)c2cccc([N+](=O)[O-])c2)C(=O)c2ccccc2C1=O [MMV666125]	100	–	21.1	99	103	104	4.26	99	–	–
COc1ccc(C2c3ccc4ccccc4c3Oc3ncn(CCCn4ccnc4)c(=N)c32)cc1OC (stereo not drawn) [MMV667490]	102	–	–	–	104	104	–	–	–	–
Cc1ccc2nc(C)cc(Nc3cccc(C(F)(F)F)c3)c2c1 [MMV000326]	100	–	–	–	103	103	–	–	–	–
CC(C)=CCN1CCC(C(=O)Nc2ccc(-c3nc4ccccc4[nH]3)cc2)CC1 [MMV665946]	98	99	–	–	100	101	–	–	–	–
Cc1sc(NC(=O)c2ccco2)c(C(c2cccnc2)N2CCC(Cc3ccccc3)CC2)c1C (stereo not drawn) [MMV396663]	82	–	–	–	103	103	–	–	–	–

Compound	cytotoxicity at 50 µM (HepG2-A16-CD81EGFP cells; [2]) [%]	cytotoxicity at 50 µM (HepG2-A16-CD81EGFP cells; [3]) [%]	IC50 (HepG2-A16-CD81EGFP cells) [µM]	inhibition at 50 µM (HepG2-A16-CD81EGFP cells) [%]	inhibition at 50 µM [1, 4] [%]	inhibition at 50 µM [1, 5] [%]	IC50 [1, 6] [µM]	inhibition at 50 µM [1, 7] [%]	IC50 ([1]; read-out: PbLuc IC50, dose response, unit inferred) [µM]	IC50 ([1]; read-out: PbLuc IC50) [µM]
COc1ccc(C(=O)NC(c2ccc(Cl)cc2Cl)c2cc(Cl)c3cccnc3c2O)cc1 (stereo not drawn) [MMV666054]	98	–	12.7	88	100	102	1.58	101	–	–
Cc1cc(Nc2ccc(C)c(Cl)c2)n2nc(C(F)(F)F)nc2n1 [MMV665874]	93	95	–	–	102	102	–	–	–	–
Cc1ccc(OCCCCCCNCCO)c(C)c1 [MMV666020]	90	–	–	–	104	104	–	–	–	–
CCN(CC)CCNc1ncnc2c1[nH]c1ccc(Cl)cc12 [MMV396703]	95	98	–	–	103	106	–	–	–	–
FC(F)(F)c1cccc(Nc2nc3ccccc3nc2Nc2cccc(C(F)(F)F)c2)c1 [MMV665794]	100	–	1.9	102	103	102	0.667	100	–	–
Cc1[nH]c(-c2ccc(F)cc2)cc1C(=O)NC1CCN(Cc2ccccc2)CC1 [MMV019738]	97	98	–	–	103	102	–	–	–	–
c1ccc2c(NCCc3c[nH]c4ccccc34)c3ccccc3nc2c1 [MMV006513]	97	–	–	–	98	101	–	–	–	–
Cc1ccc(C)c(Cn2c(N3CCC(C(=O)NCc4cccs4)CC3)nc3ccccc32)c1 [MMV019741]	98	–	–	–	103	104	–	–	–	–
CC(NCc1ccccc1)c1cc(Cl)ccc1O (stereo not drawn) [MMV665789]	72	89	–	–	103	100	–	–	–	–
Oc1ccc(Br)cc1CN1CCN(Cc2cccc(F)c2)CC1 [MMV000356]	64	–	–	–	100	92	–	–	–	–
O=C(NC(c1ccccc1)c1ccc2cccnc2c1O)c1ccccc1 (stereo not drawn) [MMV666080]	92	93	4	84	101	102	1.55	101	–	–
CCOc1cc(CNC(C)C(O)c2ccccc2)cc(Cl)c1OCC (stereo not drawn) [MMV396633]	98	99	–	–	101	102	–	–	–	–
Cc1cc(Nc2ccc(OCc3ccccc3)cc2)nc2cc(O)ccc12 [MMV007181]	98	–	–	–	103	103	–	–	–	–
c1ccc2c(NCCCCCCNc3c4c(nc5ccccc35)CCCC4)c3c(nc2c1)CCCC3 [MMV019555]	100	–	14.5	101	104	104	–	100	–	1.39
COc1cc2c(cc1OC)C1=NNC(=O)C1=NC(C)(C)C2 [MMV084940]	99	100	31.3	94	103	102	4.02	99	–	–
CC(C)CCNCC(O)Cn1c2ccccc2c2ccccc21 (stereo not drawn) [MMV006787]	98	–	30.3	97	103	103	9.6	99	–	–
